Measurements as given in patent publication US11564920B2, “5-heteroaryl-1H-pyrazol-3-amine derivative” (Sumitomo Pharma Co., Ltd., priority 2020, dated 2023).
Entries after “also recorded” stand apart in the source; their conditions may differ.

How the values were obtained:
BRSK2 = BRSK2 (Homo sapiens (Human), UniProt Q8IWQ3); experiment: Kinase selectivity test (HotSpot Full Panel Kinase profiling); type: biochemical; conditions: 100 nM, ATP 10 μM; read-out: Residual activity (%) BRSK2
Experimental: (§1) Buffer: 20 mM HEPES, pH 7.5, 10 mM MgCl2, 2 mM […] (as needed), 1 mM EGTA, 0.02% Brij35, 0.02 mg/mL BSA, 0.1 mM Na3VO4, 2 mM DTT, 1% DMSO
(§2) Compound concentration: 100 nM

LOK/STK10 = LOK/STK10 (Homo sapiens (Human), UniProt O94804); experiment: as above; type: biochemical; conditions: 100 nM, ATP 10 μM; read-out: Residual activity (%) LOK/STK10
Sequence of LOK/STK10 (O94804 whole entry): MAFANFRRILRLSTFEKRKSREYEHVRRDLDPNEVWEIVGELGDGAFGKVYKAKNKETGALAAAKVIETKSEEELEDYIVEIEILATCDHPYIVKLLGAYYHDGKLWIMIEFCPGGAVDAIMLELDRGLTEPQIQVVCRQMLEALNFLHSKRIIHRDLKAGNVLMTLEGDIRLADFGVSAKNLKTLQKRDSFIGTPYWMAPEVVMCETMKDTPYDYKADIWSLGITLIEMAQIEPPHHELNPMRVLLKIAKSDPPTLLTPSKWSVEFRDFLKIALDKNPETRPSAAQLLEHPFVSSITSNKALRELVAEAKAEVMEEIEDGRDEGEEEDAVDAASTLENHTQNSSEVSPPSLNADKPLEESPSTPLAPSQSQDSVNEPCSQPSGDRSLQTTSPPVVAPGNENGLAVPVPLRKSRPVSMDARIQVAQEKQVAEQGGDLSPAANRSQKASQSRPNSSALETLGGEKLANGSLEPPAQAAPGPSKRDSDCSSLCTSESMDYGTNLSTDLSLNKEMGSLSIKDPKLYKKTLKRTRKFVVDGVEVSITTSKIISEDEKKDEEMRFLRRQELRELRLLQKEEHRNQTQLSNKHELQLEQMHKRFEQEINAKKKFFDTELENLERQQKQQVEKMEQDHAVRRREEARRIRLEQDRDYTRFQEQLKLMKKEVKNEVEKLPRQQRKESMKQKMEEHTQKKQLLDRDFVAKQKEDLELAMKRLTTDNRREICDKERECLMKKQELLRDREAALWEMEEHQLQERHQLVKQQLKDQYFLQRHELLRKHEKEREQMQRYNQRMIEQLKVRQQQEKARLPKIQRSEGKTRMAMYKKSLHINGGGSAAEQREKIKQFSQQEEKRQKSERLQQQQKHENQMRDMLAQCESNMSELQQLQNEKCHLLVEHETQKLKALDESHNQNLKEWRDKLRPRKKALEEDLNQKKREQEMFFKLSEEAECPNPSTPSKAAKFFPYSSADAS
Experimental: as §1, §2

CAMK2D = CAMK2D (Homo sapiens (Human), UniProt Q13557); experiment: as above; type: biochemical; conditions: 100 nM, ATP 10 μM; read-out: Residual activity (%) CAMK2D
Experimental: as §1, §2

BRSK1 = BRSK1 (Homo sapiens (Human), UniProt Q8TDC3); experiment: as above; type: biochemical; conditions: 100 nM, ATP 10 μM; read-out: Residual activity (%) BRSK1
Experimental: as §1, §2

CHK2 [1] = molecular target: T1, CHK2 (Homo sapiens (Human), UniProt O96017); experiment: as above; type: biochemical; conditions: 100 nM, ATP 10 μM; read-out: Residual activity (%) CHK2
T1 sequence (O96017 whole entry): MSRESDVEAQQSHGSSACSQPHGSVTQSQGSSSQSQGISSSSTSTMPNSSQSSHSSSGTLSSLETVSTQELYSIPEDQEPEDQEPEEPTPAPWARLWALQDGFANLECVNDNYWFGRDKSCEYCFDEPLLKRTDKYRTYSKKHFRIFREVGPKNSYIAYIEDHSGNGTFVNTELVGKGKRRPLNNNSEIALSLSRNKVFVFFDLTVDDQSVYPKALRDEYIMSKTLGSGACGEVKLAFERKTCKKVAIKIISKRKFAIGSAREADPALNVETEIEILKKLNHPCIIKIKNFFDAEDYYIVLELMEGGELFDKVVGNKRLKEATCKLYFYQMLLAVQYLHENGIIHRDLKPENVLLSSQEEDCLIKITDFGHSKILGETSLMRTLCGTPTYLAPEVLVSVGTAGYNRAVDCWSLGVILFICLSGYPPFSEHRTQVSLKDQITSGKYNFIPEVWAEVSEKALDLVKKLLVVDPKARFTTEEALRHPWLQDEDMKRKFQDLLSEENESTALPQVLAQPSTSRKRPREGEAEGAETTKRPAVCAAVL
Experimental: as §1, §2

ARKS/NUAK1 = ARKS/NUAK1 (Homo sapiens (Human), UniProt O60285); experiment: as above; type: biochemical; conditions: 100 nM, ATP 10 μM; read-out: Residual activity (%) ARKS/NUAK1
Sequence of ARKS/NUAK1 (O60285 whole entry): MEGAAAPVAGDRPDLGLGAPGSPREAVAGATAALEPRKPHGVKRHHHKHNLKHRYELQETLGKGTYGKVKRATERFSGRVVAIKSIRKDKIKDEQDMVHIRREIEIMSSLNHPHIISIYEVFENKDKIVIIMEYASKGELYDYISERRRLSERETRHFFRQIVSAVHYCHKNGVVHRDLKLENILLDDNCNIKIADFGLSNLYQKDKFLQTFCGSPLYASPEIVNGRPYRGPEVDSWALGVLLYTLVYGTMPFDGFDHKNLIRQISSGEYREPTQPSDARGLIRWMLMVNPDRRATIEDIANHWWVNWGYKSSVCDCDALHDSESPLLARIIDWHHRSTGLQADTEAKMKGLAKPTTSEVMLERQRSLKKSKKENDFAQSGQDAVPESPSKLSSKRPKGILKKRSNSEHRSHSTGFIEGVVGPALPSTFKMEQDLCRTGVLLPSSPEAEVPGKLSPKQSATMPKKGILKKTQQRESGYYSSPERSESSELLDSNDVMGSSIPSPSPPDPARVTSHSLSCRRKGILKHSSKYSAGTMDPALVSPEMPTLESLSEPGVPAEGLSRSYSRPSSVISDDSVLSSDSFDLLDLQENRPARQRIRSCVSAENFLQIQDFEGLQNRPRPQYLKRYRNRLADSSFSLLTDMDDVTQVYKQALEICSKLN
Experimental: as §1, §2

CHK2 [2] = molecular target: T1, CHK2; experiment: CHK1/CHK2 selectivity test (LabChip mobility shift); type: biochemical; conditions: read-out: IC50 value with respect to CHK2
Experimental: A 4-fold concentration test compound solution was prepared with an assay buffer (20 mM HEPES, 0.01% Triton X-100, 1 mM DTT, pH 7.5). A 4-fold concentration substrate/ATP/metal solution was prepared with a kit buffer (20 mM HEPES, 0.01% Triton X-100, 5 mM DTT, pH 7.5).

hERG current [3] = molecular target: T2, hERG current (Homo sapiens (Human), UniProt Q12809); experiment: cell-based
T2 sequence (Q12809 whole entry): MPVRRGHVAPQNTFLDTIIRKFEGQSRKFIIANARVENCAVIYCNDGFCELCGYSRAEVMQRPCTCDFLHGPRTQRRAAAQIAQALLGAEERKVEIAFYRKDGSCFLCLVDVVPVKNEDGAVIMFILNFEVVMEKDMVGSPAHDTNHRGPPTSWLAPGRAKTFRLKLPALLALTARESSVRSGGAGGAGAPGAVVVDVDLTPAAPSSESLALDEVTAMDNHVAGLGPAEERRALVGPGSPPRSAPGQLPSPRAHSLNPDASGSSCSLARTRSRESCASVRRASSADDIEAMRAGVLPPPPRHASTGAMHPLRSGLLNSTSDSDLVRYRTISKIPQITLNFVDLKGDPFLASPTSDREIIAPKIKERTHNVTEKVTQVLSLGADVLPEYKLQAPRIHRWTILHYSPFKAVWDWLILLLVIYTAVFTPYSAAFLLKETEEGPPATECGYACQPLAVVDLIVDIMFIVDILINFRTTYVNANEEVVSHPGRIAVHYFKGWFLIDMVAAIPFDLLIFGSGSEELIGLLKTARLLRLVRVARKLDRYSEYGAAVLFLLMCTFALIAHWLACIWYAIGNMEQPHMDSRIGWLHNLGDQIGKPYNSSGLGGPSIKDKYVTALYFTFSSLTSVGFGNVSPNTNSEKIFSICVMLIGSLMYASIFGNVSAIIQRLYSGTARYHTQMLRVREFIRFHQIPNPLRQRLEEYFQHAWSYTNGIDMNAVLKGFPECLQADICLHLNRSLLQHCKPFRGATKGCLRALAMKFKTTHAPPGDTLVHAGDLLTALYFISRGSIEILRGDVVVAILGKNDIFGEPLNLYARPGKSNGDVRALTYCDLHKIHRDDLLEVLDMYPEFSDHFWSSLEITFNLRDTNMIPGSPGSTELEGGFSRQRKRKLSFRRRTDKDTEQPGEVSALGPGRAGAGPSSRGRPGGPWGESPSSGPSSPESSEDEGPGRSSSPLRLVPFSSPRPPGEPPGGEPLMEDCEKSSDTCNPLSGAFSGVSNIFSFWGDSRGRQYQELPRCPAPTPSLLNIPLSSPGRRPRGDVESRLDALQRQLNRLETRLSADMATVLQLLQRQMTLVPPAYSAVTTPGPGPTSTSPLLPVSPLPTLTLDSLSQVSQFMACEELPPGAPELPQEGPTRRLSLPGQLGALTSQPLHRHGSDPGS
Experimental: (§3) The test compounds were added to cultured hERG (human Ether-a-go-go Related Gene) gene stably expressing CHO cell line cells to achieve 0.27 to 100 μM.

hERG current [4] = molecular target: T2, hERG current; experiment: hERG current blocking test; conditions: IC50 of hERG divided by IC50 of CHK1 inhibition of Test Example 1
Experimental: as §3

CHK1 = CHK1 (Homo sapiens (Human), UniProt O14757); experiment: CHK1 inhibitory activity test (IMAP TR-FRET); type: biochemical
Sequence of CHK1 (O14757 whole entry): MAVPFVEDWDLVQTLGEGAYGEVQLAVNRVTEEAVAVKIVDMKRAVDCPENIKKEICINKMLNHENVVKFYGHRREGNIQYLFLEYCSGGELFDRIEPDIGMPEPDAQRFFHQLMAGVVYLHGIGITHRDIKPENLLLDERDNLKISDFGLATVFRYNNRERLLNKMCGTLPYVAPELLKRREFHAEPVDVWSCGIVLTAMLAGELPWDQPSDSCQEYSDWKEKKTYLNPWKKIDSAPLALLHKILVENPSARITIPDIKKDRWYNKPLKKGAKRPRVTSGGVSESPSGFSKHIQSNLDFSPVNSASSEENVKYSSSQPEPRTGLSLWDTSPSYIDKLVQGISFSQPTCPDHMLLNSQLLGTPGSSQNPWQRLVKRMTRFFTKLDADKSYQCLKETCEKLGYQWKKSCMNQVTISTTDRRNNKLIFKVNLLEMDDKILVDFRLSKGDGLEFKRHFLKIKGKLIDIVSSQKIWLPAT
Experimental: IMAP TR-FRET Screening Express Kit (R8160) was obtained from Molecular Devices. […] FAM-PKAtide (R7255, Molecular Devices) and FAM-Phospho-PKAtide (R7304, Molecular Devices) were admixed after dilution, and calibration standard systems for phosphorylation levels from 0 to 100% were created. 5 μL of a compound dissolved in a 0.4% DMSO solution was added to a 384 well plate. A compound study group to which 5 μL of each of CHK1, CHK1tide, and ATP was added, and a standard group to which 20 μL of standard was added were created, and subjected to a kinase reaction for 3 hours at 30° C. Subsequently, 60 μL of Binding Reagent (80% Buffer A, 20% Buffer B, 1:600 Binding Reagent, 1:400 Tb-Donor) was added for a binding reaction for 2 hours at room temperature.

Sequence of BRSK2 (Q8IWQ3 whole entry): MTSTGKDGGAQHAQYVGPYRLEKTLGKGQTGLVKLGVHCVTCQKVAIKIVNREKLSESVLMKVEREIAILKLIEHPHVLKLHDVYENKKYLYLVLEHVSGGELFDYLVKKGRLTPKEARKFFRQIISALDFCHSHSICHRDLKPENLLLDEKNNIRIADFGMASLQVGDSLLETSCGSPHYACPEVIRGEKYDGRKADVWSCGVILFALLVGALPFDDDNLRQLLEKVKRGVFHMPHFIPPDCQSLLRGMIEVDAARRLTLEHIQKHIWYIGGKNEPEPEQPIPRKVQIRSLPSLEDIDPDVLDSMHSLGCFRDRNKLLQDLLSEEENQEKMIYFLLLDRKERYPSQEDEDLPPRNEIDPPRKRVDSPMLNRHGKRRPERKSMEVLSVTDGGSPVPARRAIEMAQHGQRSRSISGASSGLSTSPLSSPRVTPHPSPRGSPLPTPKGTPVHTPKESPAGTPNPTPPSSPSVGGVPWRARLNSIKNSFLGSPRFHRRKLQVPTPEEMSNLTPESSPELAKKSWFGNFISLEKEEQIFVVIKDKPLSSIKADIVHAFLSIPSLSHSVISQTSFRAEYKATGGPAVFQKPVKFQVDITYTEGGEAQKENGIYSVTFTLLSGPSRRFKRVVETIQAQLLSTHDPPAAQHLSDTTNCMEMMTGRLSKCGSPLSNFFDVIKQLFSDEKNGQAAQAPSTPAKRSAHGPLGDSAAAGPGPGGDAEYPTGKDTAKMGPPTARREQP

Row | SMILES | remaining activity at 0.1 µM (BRSK2) | remaining activity at 0.1 µM (LOK/STK10) | remaining activity at 0.1 µM (CAMK2D) | remaining activity at 0.1 µM (BRSK1) | remaining activity at 0.1 µM (CHK2 [1]) | remaining activity at 0.1 µM (ARKS/NUAK1) | IC50 (CHK2 [2]) | IC50 (hERG current [3]) | hERG/CHK1 (hERG current [4]) | CHK1 inhibitory activity relative to prexasertib (CHK1) | IC50 (CHK1) | effect of suppressing CHK1 activity (in words) (CHK1; compared with prexasertib) | inhibition at 0.0001 µM (CHK1; read-out: CHK1 inhibition % at 0.1 nM)
1 | COc1cccc(OCCCN)c1-c1cc(Nc2cnc(C#N)cn2)n[nH]1 [Prexasertib, reference compound] | 14.4% | 6.15% | 6.07% | 21.7% | 6.41% | 17.9% |  |  |  |  |  |  | 
2 | COc1ccnc(OCCCN)c1-c1cc(Nc2cnc(C#N)cn2)n[nH]1 [Example 1, 5-({5-[2-(3-aminopropoxy)-4-methoxypyridin-3-yl]-1H-pyrazol-3-yl}amino)pyrazine-2-carbonitrile] |  |  |  |  |  |  | 56.6 nM | 11500 nM | >115000 | ≥ 5 fold | < 0.1 nM | more potent effect of suppressing CHK1 activity than prexasertib; also recorded: especially potently suppressing CHK1 activity | 55%
